Non-standard residues stand in square brackets, D forms with d. Residues, ends and D or L forms follow the SMILES beside them. dNMeW = CN[C@H](Cc1c[nH]c2ccccc12)C(=O)O; dNMeS = CN[C@H](CO)C(=O)O; Orn = NCCC[C@H](N)C(=O)O
Legend:
[1] = test system: mouse macrophage J774 cells; experiment: cholesterol efflux from mouse macrophage cells incubated with peptide-treated human plasma; type: cell-based; settings: for promotion of cellular cholesterol efflux (in words): J774 cells, 2% apoB-depleted peptide-treated human plasma, 4 h, FIG. 2b
Protocol: Selected cyclic D,L-α-peptides were further evaluated for their ability to promote cellular cholesterol efflux from mouse macrophage J774 cells. A main factor for HDL anti-atherogenicity is its role in reverse cholesterol transport, of which cellular cholesterol efflux is a critical component. To measure efflux mediated by the cyclic D,L-α-peptides, cholesterol-laden cells were incubated with peptide-treated plasma for 4 h, after which the level of cholesterol effluxed to the media was measured as described in Sankaranarayanan et al., J. Lipid Res. 52, 2332-2340, 2011.
Preparation of labeling medium: These procedures were modified from that reported in Sankaranarayanan et al., J. Lipid Res. 52, 2332-2340, 2011. The labeling medium was prepared by complexing the unlabeled cholesterol and BODIPY-cholesterol (20% of the total cholesterol) with methyl-β-cyclodextrin (CD) at a molar ratio of 1:40 (total cholesterol/CD). Unlabeled cholesterol and BODIPY-cholesterol were dissolved in chloroform and dried in a round bottom flask by rotor-evaporation in the dark to form a thin film. The cholesterol mixture was solubilized by adding 20 mM CD in MEM-HEPES buffer. The suspension was sonicated in a water bath (37° C.) for at 1 h, stirred at 37° C. for 3 h, filtered using a 0.45-μm syringe filter, and diluted with an equal volume of MEM-HEPES buffer containing 4 μg/mL Sandoz ACAT (acyl-CoA:cholesterol acyltransferase) inhibitor (Sigma). The final concentrations of BODIPY-cholesterol, unlabeled cholesterol, CD, and ACAT inhibitor in the labeling medium were 0.025 mM, 0.1 mM, 10 mM, and […], respectively.
Preparation of efflux medium: Just before the initiation of the efflux assays, the human plasma frozen at −80° C. was thawed, and 80 μL of plasma was incubated with 20 μL of cyclic peptide stocks (peptide stocks were 1-3 mg/mL in 10% sucrose) or the vehicle (10% sucrose) at 37° C. for 30 min. The treated plasma samples (100 μL) were then incubated with 25% PEG 8000 solution in 200 mM glycine buffer, pH 8.5 (40 μL) to precipitate apoB-containing lipoproteins (Asztalos et al., J. Lipid Res. 46, 2246-2253, 2005). After a 15-min incubation, the precipitate was removed by high-speed centrifugation (13,000 rpm, 10 min, 4° C.), and the supernatant (60 μL) was immediately diluted with MEM-HEPES buffer (1.5 mL) to give ˜2% whole plasma. This solution, containing the peptide remodeled-HDL lipoprotein fraction as cholesterol acceptors, was used as the efflux medium.
Cholesterol efflux from mouse macrophage cells: Mouse macrophage J774A.1 cells (TIB-67; American Type Culture Collection, Manassas, Va.) were seeded in 12-well culture plate at 3×10^5 cells/mL and cultured to 80-90% confluency in DMEM with 10% FBS at 5% CO2. Cells were rinsed twice with MEM-HEPES, incubated for 1 h with 0.25 ml of labeling medium containing CD/BODIPY-cholesterol/unlabeled cholesterol and 2 μg/mL Sandoz ACAT inhibitor, followed by washing twice with MEM-HEPES. The cholesterol-laden cells were equilibrated for 18 h in DMEM containing 5% LPDS, […] Sandoz ACAT inhibitor, and 0.3 mM Cpt-cAMP. After equilibration, the cells were washed twice with MEM-HEPES and incubated with 0.25 mL of efflux media for 4 h. At the end of the incubation time, the efflux media was removed and centrifuged (1200 rpm, 10 min) to remove floating cells, and the fluorescence intensity of 100 μL cell-free media was recorded using a Tecan GENios plate reader (excitation 485 nm, emission 535 nm). The obtained signals were background subtracted using the signal from unlabeled cells. The cell monolayers were rinsed twice with ice-cold MEM-HEPES and solubilized with 0.25 mL 1% cholic acid by shaking on a plate shaker for at least 4 h at room temperature; then the fluorescence intensity of 100 μL cell lysate was recorded and background subtracted using the signal from unlabeled cell lysate. […]

[2] = test system: HDL in human plasma; experiment: pre-beta HDL ELISA assay: remodeling HDL in human plasma in vitro; type: biochemical; settings: pre-beta HDL ELISA
Protocol: First, various cyclic peptides, including the majority of compounds shown in FIG. 2, were assessed for activities for remodeling HDL in human plasma in vitro. Unlike western blot which was used to generate data shown in FIG. 2, here a pre-beta HDL ELISA assay was used to measure pre-beta HDL levels. Results from the assay are shown in Table 1, which lists the peptides in the order of their activities in remodeling HDL.

[3] = test system: human plasma HDL; experiment: human plasma HDL remodeling (NDGGE, immunoblot for human apoA-I); type: biochemical; settings: human plasma in vitro; Western blot for apoA-I; FIGS. 1 and 2a
Description: As an initial phase of investigation, we evaluated in vitro the effectiveness of our cyclic D,L-α-peptides to remodel mature human plasma HDLs into lipid-poor HDL (FIG. 1 and FIG. 2a). Lipid-poor HDL particles are key acceptors of cholesterol in reverse cholesterol transport and are thus crucial for combating atherosclerosis. In fact, with respect to the cholesterol efflux capacity of human sera, the levels of lipid-poor HDL correlate much better than the levels of HDL-cholesterol or apoA-I. Briefly, our assay involved incubating human plasma with a peptide, after which the plasma sample was subjected to non-denaturing gradient gel electrophoresis (NDGGE) to separate the HDL subspecies and then immunoblotted for human apoA-I. The ranked activities of the cyclic D,L-α-peptides in promoting formation of lipid-poor HDL are shown in FIG. 1. It should be noted that there are inherent variabilities associated with electrophoretic transfer, staining, and densitometric quantitation, so the peptide ranking should be viewed as an approximate guide to relative plasma HDL remodeling efficacy. Nevertheless, the rankings were similar overall whether the panel was assayed by using peptide stock solutions prepared in 10% sucrose/H2O (FIGS. 1 and 2a) or peptide stock solutions prepared in 1:1 DMSO/H2O. From these preliminary structure-activity relationship (SAR) studies, we identified a pronounced sequence dependence for efficient plasma HDL remodeling (vide infra).
Human plasma remodeling: All procedures involving human samples were approved by TSRI Institutional Review Board. Procedures were modified from those reported in Troutt et al., J. Lipid Res. 49, 581-587, 2008. Blood samples from normal healthy human donors were obtained from TSRI Normal Blood Donor Program. EDTA-anticoagulated whole blood was centrifuged at 1500×g for 15 min within 1 h of being drawn from the donor. The plasma layer was aliquoted and used immediately or frozen at −80° C. for future use. Peptide stock solutions were prepared at ˜15 mM peptide in 50% DMSO for initial screenings, or at ˜2 mM peptide in 10% sucrose for remodeling assays at lower concentrations (FIG. 1) and cholesterol efflux assays (FIG. 2). Plasma samples (30 μL) were treated with peptide stocks, and the samples were incubated at 37° C. for 0.5-1 h, and then quenched by adding 270 μL of 50% sucrose (1:9 dilution). Samples were mixed with 6× native loading buffer (125 mM tris, pH 6.8, 0.02% bromophenol, 20% glycerol), of which 6 μL was loaded onto a 4-20% polyacrylamide gel. The molecular weight ladder used was High Molecular Weight Calibration Kit (Amersham Biosciences, #17-0445-01). […] The films were scanned and quantified by densitometry using the program LabWorks (v. 4.0.0.8). […]

Row | Compound | toxicity based on the cellular morphology and density ([1]; J774 cells in the efflux assay) | promotion of cellular cholesterol efflux (in words) [1] | Pre-beta HDL generated (normalized level) [2] | plasma HDL remodeling to lipid-poor HDL (in words) [3]
1 | CC(C)C[C@@H]1NC(=O)[C@@H](Cc2c[nH]c3ccccc23)NC(=O)[C@H](CCCN)NC(=O)[C@@H](CO)NC(=O)[C@H](CCC(N)=O)NC(=O)[C@@H](CCC(=O)O)NC(=O)[C@H](CO)NC(=O)[C@@H](Cc2c[nH]c3ccccc23)NC1=O [SEQ ID NO:4, c[wLwSeQsO]] (cyclo([dW]L[dW]S[dE]Q[dS][Orn])) | did not appear to be toxic | only marginally less effective than the α-helical apoA-I mimetic 4F | 0.59 | –
2 | Ac-wLwSeQsO-NH2 (Ac-[dW]L[dW]S[dE]Q[dS][Orn]-NH2) [SEQ ID NO:45, acetylated linear peptide] | – | failed to remodel plasma HDL or promote cholesterol efflux | – | failed to remodel plasma HDL
3 | c[wL^MewSeQ^MesO] (cyclo([dW]L[dNMeW]S[dE]Q[dNMeS][Orn])) [SEQ ID NO:14] | – | greatly diminished compared to the unmethylated parent, compound 4 | – | greatly diminished compared to the unmethylated parent, compound 4
4 | c[wLwErQrE] (cyclo([dW]L[dW]E[dR]Q[dR]E); SMILES CC(C)C[C@@H]1NC(=O)[C@@H](Cc2c[nH]c3ccccc23)NC(=O)[C@H](CCC(=O)O)NC(=O)[C@@H](CCCNC(=N)N)NC(=O)[C@H](CCC(N)=O)NC(=O)[C@@H](CCCNC(=N)N)NC(=O)[C@H](CCC(=O)O)NC(=O)[C@@H](Cc2c[nH]c3ccccc23)NC1=O) [SEQ ID NO:37] | – | dramatically reduced compared to that of compound 1 | – | dramatically reduced compared to that of compound 1

— patent publication US10092620B2, “Uses of cyclic peptides for treating and preventing atherosclerosis” (THE SCRIPPS RESEARCH INSTITUTE, priority 2013, dated 2018)
